The record followed here is ChEMBL document CHEMBL1201862, “PubChem BioAssay data set” (2004).

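Step 1: Grow cells in 96-well plates. Step 2: Expose to compound for 48 hours at 5 concentrations. Step 3: Interpolate endpoints linearly; if unreached, use highest concentration. GI50 marks 50% less growth.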 Active and inactive are the calls of the source. Cut-off read from the data, not from the text of the source: active = GI50 up to about 1.1 µM and inactive = higher.

Test systems include SK-MEL-2; 786-0; MDA-N; SK-MEL-28; HCT-15; HCC 2998; UACC-257; SF-268; SNB-19; ACHN; M14; SW-620; MOLT-4; HL-60; U-251; SK-MEL-5; A549; DU-145; KM12.
What all share (assay): NCI anticancer screen, dose series, 48 h

For `CC1(C)c2ccccc2C(=O)C12CCC(=O)CC2`, the GI50 in the experiment with SK-MEL-2 was > 100 µM (inactive); in the experiment on 786-0 it was > 100 µM (inactive); in the experiment on MDA-N, > 100 µM (inactive); in the experiment on SK-MEL-28, > 100 µM (inactive); with HCT-15, above 100 µM; in the experiment with HCC 2998, > 100 µM (inactive). Also, the GI50 with UACC-257, with SF-268, in the experiment with SNB-19, with ACHN, with M14 and in the experiment on SW-620 was > 100 µM (inactive) throughout. Moreover, the GI50 in the experiment with MOLT-4 is > 100 µM (inactive); in the experiment on HL-60, > 100 µM (inactive); with U-251, > 100 µM (inactive); in the experiment with SK-MEL-5 it was > 10 µM (inactive); in the experiment on A549 it was > 100 µM (inactive); in the experiment with DU-145, > 100 µM (inactive). Besides, the GI50 with KM12 was > 100 µM (inactive).
As for `C=C(C(=O)OC)c1cc2ccccc2n1S(=O)(=O)c1ccccc1`, the GI50 was 2.53 µM (inactive) in the experiment with SK-MEL-2; 6.05 µM (inactive) with 786-0; 2.7 µM (inactive) in the experiment with MDA-N; 2.38 µM (inactive) in the experiment on SK-MEL-28; 1.76 µM in the experiment with HCT-15; 4 µM (inactive) in the experiment on HCC 2998. The GI50 is 4.86 µM (inactive) in the experiment on UACC-257; 1.84 µM (inactive) with SF-268; 12.1 µM (inactive) with SNB-19; 1.8 µM (inactive) with ACHN; 2.67 µM (inactive) with M14; 2.09 µM (inactive) with SW-620. Besides, the GI50 was 2.21 µM (inactive) with MOLT-4; 1.87 µM (inactive) with HL-60; 1.92 µM (inactive) in the experiment on U-251; 2.14 µM (inactive) in the experiment with SK-MEL-5; 3.05 µM (inactive) in the experiment with A549; 2.69 µM (inactive) with DU-145. In addition, the GI50 with KM12 is 2.04 µM (inactive).
As to `O=C1CSC(c2ccccc2O)N1c1nc2cc3sc(N4C(=O)CSC4c4ccccc4O)nc3cc2s1` (configuration not stated), the GI50 in the experiment with SK-MEL-2 was > 100 µM (inactive); in the experiment with 786-0, > 100 µM (inactive); with MDA-N it was 34.8 µM (inactive); in the experiment on SK-MEL-28, > 79.1 µM (inactive); in the experiment on HCT-15 it was 7.05 µM; with HCC 2998 it was > 100 µM (inactive). The GI50 with UACC-257 was > 36.3 µM (inactive); in the experiment with SF-268 it was > 86.9 µM (inactive); in the experiment with SNB-19 it was 42 µM (inactive); in the experiment with ACHN it was > 44.6 µM (inactive); with M14, > 69.5 µM (inactive); in the experiment on SW-620, 22.4 µM (inactive). The GI50 in the experiment on MOLT-4 was 4.06 µM (inactive); in the experiment on HL-60, 31.6 µM (inactive); with U-251 it was 36.3 µM (inactive); in the experiment on SK-MEL-5, 50.5 µM (inactive); with A549 it was 3.85 µM (inactive); with DU-145, 34.7 µM (inactive). The GI50 in the experiment on KM12 was > 68.4 µM (inactive).
For the compound `CC(C)N(C(C)C)S(=O)(=O)C[C@]12CC[C@H](CC13OCC(CS(=O)(=O)c1ccccc1)O3)C2(C)C` (some centres not stated), the GI50 in the experiment on SK-MEL-2 was 52.5 µM (inactive); in the experiment on 786-0 it was 45.9 µM (inactive); in the experiment with MDA-N it was 51.4 µM (inactive); in the experiment on SK-MEL-28, > 93.5 µM (inactive); in the experiment on HCT-15, 47 µM; in the experiment with HCC 2998 it was 54.5 µM (inactive). Also, the GI50 in the experiment on UACC-257 was 28.2 µM (inactive); with SF-268 it was 59.2 µM (inactive); in the experiment with SNB-19, 95.7 µM (inactive); in the experiment with ACHN, 47.8 µM (inactive); with M14 it was 47 µM (inactive); with SW-620, 45 µM (inactive). Also, the GI50 was 6.98 µM (inactive) in the experiment with MOLT-4; 13 µM (inactive) in the experiment on HL-60; 52 µM (inactive) in the experiment on U-251; 29.4 µM (inactive) in the experiment with SK-MEL-5; 36.6 µM (inactive) with A549; 74.6 µM (inactive) with DU-145. In addition, in the experiment with KM12, the GI50 is 36.4 µM (inactive).
Take `Fc1ccc2c(c1)nc1n2C(c2c(Cl)cccc2Cl)SC1` (configuration not stated): the GI50 is 15 µM (inactive) with SK-MEL-2; 16 µM (inactive) in the experiment on 786-0; 12.1 µM (inactive) in the experiment on MDA-N; 10.8 µM (inactive) in the experiment with SK-MEL-28; 11.7 µM in the experiment with HCT-15; 15.7 µM (inactive) with HCC 2998. For the same compound, the GI50 with UACC-257 was 13.5 µM (inactive); in the experiment on SF-268, 15.8 µM (inactive); with SNB-19, 14.1 µM (inactive); in the experiment on ACHN, 16.9 µM (inactive); in the experiment on M14, 16.4 µM (inactive); with SW-620 it was 13.2 µM (inactive). The GI50 was 8.02 µM (inactive) with MOLT-4; 12.3 µM (inactive) in the experiment with HL-60; 13.1 µM (inactive) in the experiment on U-251; 8.71 µM (inactive) with SK-MEL-5; 14.9 µM (inactive) in the experiment on A549; 16.4 µM (inactive) in the experiment with DU-145. Besides, in the experiment on KM12, the GI50 is 12 µM (inactive).
For `CCOC(=O)c1c(N2CCOCC2)[nH]c(=O)c(C(c2c(O)c(C(=O)OCC)c(N3CCOCC3)[nH]c2=O)C(C)C)c1O`, the GI50 with SK-MEL-2 was > 100 µM (inactive); in the experiment with 786-0 it was 60.1 µM (inactive); with MDA-N, > 100 µM (inactive); in the experiment with SK-MEL-28, > 100 µM (inactive); with HCT-15 it was above 100 µM; in the experiment on HCC 2998 it was > 100 µM (inactive). Besides, the GI50 in the experiment on UACC-257 was > 100 µM (inactive); with SF-268, > 100 µM (inactive); in the experiment with SNB-19, 83.6 µM (inactive); in the experiment with ACHN, > 100 µM (inactive); with M14, > 100 µM (inactive); in the experiment on SW-620, > 100 µM (inactive). Also, the GI50 in the experiment on MOLT-4, in the experiment on HL-60, in the experiment on U-251, in the experiment on SK-MEL-5, in the experiment on A549 and in the experiment on DU-145 was > 100 µM (inactive) in each case. Besides, in the experiment with KM12, the GI50 is > 100 µM (inactive).
Turning to `Cc1nc(C)c(C(=O)NNC(N)=S)cc1C(=O)NNC(N)=S`, the GI50 in the experiment on SK-MEL-2 is > 100 µM (inactive); in the experiment on 786-0, > 100 µM (inactive); in the experiment on MDA-N it was > 100 µM (inactive); in the experiment with SK-MEL-28 it was > 100 µM (inactive); in the experiment on HCT-15, above 100 µM; in the experiment on HCC 2998, > 100 µM (inactive). Further, the GI50 in the experiment with UACC-257, in the experiment with SF-268, in the experiment with SNB-19, in the experiment on ACHN, with M14 and in the experiment on SW-620 was > 100 µM (inactive) throughout. The GI50 with MOLT-4, in the experiment on HL-60, with U-251, with SK-MEL-5, in the experiment on A549 and with DU-145 was > 100 µM (inactive) in each case. Besides, the GI50 in the experiment with KM12 was > 100 µM (inactive).
Consider `COc1cc(OCc2ccc3nc(-c4ccccc4)c(Cl)nc3c2)cc(OC)c1OC`, for which the GI50 in the experiment with SK-MEL-2 is 45.5 µM (inactive); in the experiment with 786-0 it was 29.4 µM (inactive); in the experiment on MDA-N it was > 100 µM (inactive); with SK-MEL-28, > 100 µM (inactive); with HCT-15, above 100 µM; in the experiment with HCC 2998 it was > 100 µM (inactive). Further, the GI50 is > 100 µM (inactive) in the experiment on UACC-257; > 100 µM (inactive) in the experiment with SF-268; 52.7 µM (inactive) in the experiment on SNB-19; 32.3 µM (inactive) in the experiment with ACHN; > 100 µM (inactive) in the experiment with M14; > 100 µM (inactive) in the experiment on SW-620. Also, the GI50 was > 100 µM (inactive) with MOLT-4; 24.5 µM (inactive) in the experiment with HL-60; 16.5 µM (inactive) in the experiment on U-251; 20.5 µM (inactive) in the experiment on SK-MEL-5; > 100 µM (inactive) in the experiment with A549; > 100 µM (inactive) in the experiment on DU-145. Also, the GI50 with KM12 is > 100 µM (inactive).
